Experimental data as given in paper PMC8777952, “Lignin Nanoparticles Deliver Novel Thymine Biomimetic Photo-Adducts with Antimelanoma Activity” (International Journal of Molecular Sciences, 2022).

Columns and labels:
[1] = Loading capacity and loading efficiency of lignin nanoparticles; assay type: physicochemical
Procedure: A further increase in the secondary solvent afforded low stable colloidal LNPs (18 mL; Table 3, entry 4) and aggregates (24 mL; Table 3, entry 5). Finally, LNPs were not formed after the addition of high volumes of deionized water (Table 3, entries 6–8). The optimal conditions affording stable colloidal LNPs (1:5 w/w and 1:10 w/w 4a/KL ratio, 3.0 mL of DMI/water 2:1 v/v, and 6.0 mL of secondary solvent) were successively applied for the encapsulation of 4b-d, and of the most abundant photo-adducts 6a-d and 8a-d. The loading capacity (LC) and loading efficiency (LE) Equations (1) and (2) were measured as a function of the concentration of the encapsulated compound [55, 56, 57, 58].
LNPs were separated by centrifugation, and the supernatant was analyzed by HPLC at λmax value of the encapsulated compound (271 nm for 4a-d, 191 nm for 6a-d, and 192 nm for 8a-d, respectively). Irrespective from the experimental conditions, the highest LE and LC were obtained in the presence of the highest value of the compound/KL ratio (compound/KL ratio of 1:5). […] (1) LC %:weight of starting drug−weight of unloaded drug/weight of lignin (2) LE %:weight of starting drug−weight of unloaded drug/weight of starting drug
LNPs were produced and loaded by the nanoprecipitation technique. The appropriate compound (3 mg) was dissolved in DMI/water (3.0 mL) at 50 °C under gentle stirring conditions followed by the addition of KL (15 mg). The fast addition of deionized water (6.0 mL) instantaneously produced LNPs. LNPs were then recovered by centrifugation (7500 rpm), washed with deionized water (10 mL) for 3 times, and lyophilized. The loading capacity (LC) and loading efficiency (LE) were evaluated by UHPLC analysis.

SK-Mel28 = experiment: MTT cell viability assay, SK-Mel28 melanoma cells; assay type: cell-based, human; settings: for SI (SKMel28): 24 h, ratio reference cell line FB789 versus melanoma cell line; for IC50: Homo sapiens, SK-MEL-28, 24 h
From the text: (§1) Preliminary sunscreen data of 4a-d have been reported focusing on SKH1-E cell line, human abdominal skin explants, and in vivo hairless mouse models. Data for photo-adducts 6a-d, 7a-d, and 8a-d are not available. Thymine photo-adducts are well recognized as responsible for the activation of different molecular pathways involved in the cellular response to UV damage, including DNA repair system, melanogenesis, and Nucleotide Excision Repair (NER) system. In addition, TOP1ccs trapped near photo-adducts activates BER and remove (6-4)PPs in NER-deficient cells. TOP1 is highly expressed in malignant tumors, including carcinomas of the colon, prostate, ovary, lung, and melanoma. […] For this reason, we decided to study the antimelanoma activity of 4a-d, 6a-d, and 8a-d against two melanoma cancer cell lines, namely SK-MEL28 and RPMI7951 bearing a different genetic background. The antimelanoma activity was determined using the MTT cell viability assay, following the absorbance change (λmax 570 nm and 630 nm). The human FB789 cell line was used as reference. The CC50 (cytotoxic concentration that causes death of 50% of viable cells), IC50 (minimum concentration inhibiting 50% of the melanoma cells), and Selective Index (SI) (ratio between IC50 of reference cell line versus melanoma cell line) values are reported in Table 5. […] Compounds 4a-d were ineffective against melanoma cell lines. […] 234. Next, the antimelanoma activity of compounds 8a and 8b was evaluated after loading inside LNPs.
(§2) FB789 was grown in DMEM/F10, RPMI7951 melanoma cancer cells were grown in Minimal Essential Medium (MEM), while SK-Mel 28 melanoma cancer cells were grown in Dulbecco’s Modified Eagle Medium (DMEM). All culture media were supplemented with 10% Fetal Bovine Serum (FBS) plus 1.0 mM glutamine (40 µg/mL). The antimelanoma activity of 4a-d, 6a-d, and 8a-d was evaluated by MTT viability assay according to reference. Briefly, aliquots of the appropriate compound ([…]) were solubilized in dimethyl sulfoxide (one drops, DMSO) and administered to the selected cell line. After incubation for 3 h at 37 °C with MTT (0.5 mg/mL) the supernatant was removed, and […] of lysis solution (10% SDS and 0.6% acetic acid) was added to dissolve the formazan crystals. Optical density detection was performed by DTX880 Multimode Detector (Beckman Coulter) with 630 nm (background) and 570 nm filters. The percentage of cell viability was calculated as follows: % cell viability = 100–% cell cytotoxicity. The experiments for the evaluation of the antimelanoma activity of LNPs/8a and LNPs/8b were performed in a similar way using the appropriate amount of nanoparticles containing 1.0 mmol of the active compound and analyzing the antimelanoma activity at three different release times (2, 4, and 24 h).

[2] = MTT cell viability assay, FB789 reference cell line; assay type: cell-based; settings: FB789 cells (normal human fibroblast)
From the text: as §1, §2

RPMI7951 = experiment: MTT cell viability assay, RPMI7951 melanoma cells; assay type: cell-based, human; settings: for SI (RPMI7951): 24 h, ratio reference cell line FB789 versus melanoma cell line; for IC50: Homo sapiens, RPMI-7951, 24 h
From the text: as §1, §2

[3] = Cumulative (kinetic) release from lignin nanoparticles by dialysis; assay type: physicochemical; settings: pH 5.5, first 4 h, 37.5 °C
Procedure: The cumulative releasing capacity of LNPs was evaluated as previously reported in the literature and normalized with respect to the total amount of entrapped compound. In a typical procedure, the appropriate LNPs (7.5 mg) were suspended in water (3.0 mL) and dialyzed against deionized water (60.0 mL) at two selected pH values (pH 7.4 and 5.5, respectively) at 37.5 °C for 24 h. The amount of released compound was measured by UV–vis spectrophotometry at the optimal λmax value for each compound by sampling the dialysis solution at appropriate time intervals (Figure 4). The withdrawn volume was replaced by corresponding deionized water in order to maintain constant the volume of the solution (Section 3).
LNPs (7.5 mg, compound/KL 1:5 ratio) were suspended in water (3.0 mL), placed in a dialysis membrane, and immersed in PBS buffer (60 mL) at two selected pH values (7.4 and 5.5, respectively) at 37.5 °C for 24 h. A similar procedure was applied solubilizing LNPs/8b (7.5 mg) water (3.0 mL), followed by dialysis against the culture medium DMEM (60 mL). […] The quantification of released compound was conducted by UV–Vis spectrophotometry at the λmax characteristic for each type of compound (271 nm for 4a-d, and 191 and 192 nm for 6a-d and 8a-d, respectively) using semi-micro cuvettes. […]

[4] = parameters: method as in PMID 25075037; settings: commercial antitumor agents; cited from earlier work
[5] = UV shielding (photo-protective) capacity of loaded LNPs; assay type: physicochemical; settings: after 15 min of irradiation, loaded in LNPs versus free compound
Procedure: The UV shielding capacity of LNPs allows them to protect bioactive compounds from premature deactivation. To evaluate the photo-protective role of LNPs we studied the irradiation of LNPs/4a, LNPs/6a, LNPs/7a, and LNPs/8a as a selected representative example of thymine dimers. The samples were suspended in DMI/water mixture (2:1 v/v, 1.0 mL) and treated with UV under previously reported experimental conditions. At scheduled times (5, 10, and 15 min), aliquots (0.2 mL) of the suspension were withdrawn and analyzed. An excess of DMI (1.0 mL) was added to disaggregate LNPs, followed by filtration of residual lignin. The residual concentrations of 4a, 6a, 7a, and 8a (expressed as % with respect to the starting material) were evaluated at λmax 271 nm. Data were compared with 4a, 6a, 7a, and 8a after irradiation under similar experimental conditions (Figure 3).
LNPs/4a were prepared following the standard procedure previously described. Typically, LNPs/4a (1.0 mg) suspended in DMI/water mixture (2:1 ratio, 1.0 mL) were deposited on a glass lens and irradiated with Haerus source (250 Watt, the lamp was at 20.0 cm distance). […] The photo-protection capacity of LNPs was determined by measuring the decrease in absorbance (λmax 271 nm) of recovered 4a compared with free reference (Varian UVCary-50). […]

LC% ([1]; Compd/KL ratio 1:5) [%]	LE% ([1]; Compd/KL ratio 1:5) [%]	LC% ([1]; Compd/KL ratio 1:10) [%]	LE% ([1]; Compd/KL ratio 1:10) [%]	IC50 (SK-Mel28) [µM]	IC50 (RPMI7951) [µM]	cumulative release [3] [%]	photo-protection capacity [5] [%]	Compound	SI (SKMel28) (SK-Mel28)	CC50 at 24 h [2] [µM]	SI (RPMI7951) (RPMI7951)	SI [4]
5.59	49.94	4.93	49.26	304.3 ± 2.4	543.1 ± 2.7	–	–	Cc1cn(CCCn2cc(C)c(=O)[nH]c2=O)c(=O)[nH]c1=O [Compound 4a, N1,N1′-(propane-1,3-diyl)bis-thymine]	4.7	1450 ± 56.2	2.7	–
10.38	51.91	4.24	52.40	169 ± 4.6	12400	–	–	Cc1cn(CCCCn2cc(C)c(=O)[nH]c2=O)c(=O)[nH]c1=O [Compound 4b, N1,N1′-(butane-1,4-diyl)bis-thymine]	4.9	839 ± 10.9	0.07	–
6.93	37.40	6.81	41.12	85.2 ± 0.9	138 ± 2.1	–	–	CC12C(=O)NC(=O)N3CCCN4C(=O)NC(=O)C1(C)C4C32 (centres unmarked) [Compound 6a, 6a,6b-dimethylhexahydro-1H-3a,5,8,9a-tetraazacyclohepta[def]biphenylene 4,6,7,9(5H,8H)-tetraone]	4.39	375 ± 28.2	2.7	–
9.59	50.94	9.33	50.74	17.9 ± 1.9	77.8 ± 1.8	–	–	CC12C(=O)NC(=O)N3CCCCN4C(=O)NC(=O)C1(C)C4C32 (centres unmarked) [Compound 6b, 7a,7b-dimethyloctahydro-4a,6,9,10a-tetraazacycloocta[def]biphenylene-5,7,8,10(6H,9H)-tetraone]	6.09	109 ± 5.4	1.4	–
11.46	51.12	10.48	47.86	282 ± 4.4	195 ± 3.8	–	–	CC12C(=O)NC(=O)N3CCCCCN4C(=O)NC(=O)C1(C)C4C32 (centres unmarked) [Compound 6c, 8a,8b-dimethyloctahydro-1H-5a,7,10,11a-tetraazacyclonona[def]biphenylene-6,8,9,11(7H,10H)-tetraone]	0.83	234 ± 7.3	1.2	–
13.22	72.61	11.54	71.98	87.9 ± 1.9	234.9 ± 1.6	–	–	CC12C(=O)NC(=O)N3CCCCCCN4C(=O)NC(=O)C1(C)C4C32 (centres unmarked) [Compound 6d, 9a,9b-dimethyldecahydro-6a,8,11,12a-tetraazacyclodeca[def]biphenylene-7,9,10,12(8H,11H)-tetraone]	4.3	377 ± 14.8	1.6	–
–	–	–	–	–	–	–	~40	Cc1cn2c(=O)nc1C1N(CCC2)C(=O)NC(=O)C1(C)O (centres unmarked) [Compound 7a, 4-hydroxy-4,6-dimethyl-4,4a,10,11-tetrahydro-1H,9H-5,8-(azenomethano)pyrimido[1,6-e][1,5]diazonine-1,3,13(2H)-trione]	–	–	–	–

The remaining lines, values behind:

Compound	LC% ([1]; Compd/KL ratio 1:5) [%]	LE% ([1]; Compd/KL ratio 1:5) [%]	LC% ([1]; Compd/KL ratio 1:10) [%]	LE% ([1]; Compd/KL ratio 1:10) [%]	IC50 (SK-Mel28) [µM]	IC50 (RPMI7951) [µM]	cumulative release [3] [%]	photo-protection capacity [5] [%]	SI (SKMel28) (SK-Mel28)	CC50 at 24 h [2] [µM]	SI (RPMI7951) (RPMI7951)	SI [4]
Cc1cn(CCCCCn2cc(C)c(=O)[nH]c2=O)c(=O)[nH]c1=O [Compound 4c, N1,N1′-(pentane-1,5-diyl)bis-thymine]	12.52	69.70	6.97	62.59	292.9 ± 2.5	357 ± 5.1	–	–	5.7	1660 ± 36.3	4.6	–
Cc1cn(CCCCCCn2cc(C)c(=O)[nH]c2=O)c(=O)[nH]c1=O [Compound 4d, N1,N1′-(hexane-1,6-diyl)bis-thymine]	14.37	71.85	7.14	71.41	169 ± 4.6	343 ± 7.6	71	–	2.3	392 ± 5.2	1.14	–
O=c1[nH]cc(F)c(=O)[nH]1 [Compound 5-FU, 5-fluro uracil]	–	–	–	–	–	–	–	–	–	–	–	55.6
CC[C@@]1(O)C(=O)OCc2c1cc1n(c2=O)Cc2cc3ccccc3nc2-1 [camptothecin]	–	–	–	–	–	–	–	–	–	–	–	88.3
COc1cccc2c1C(=O)c1c(O)c3c(c(O)c1C2=O)C[C@@](O)(C(=O)CO)C[C@@H]3O[C@H]1C[C@H](N)[C@H](O)[C@H](C)O1 [doxorubicin]	–	–	–	–	–	–	–	–	–	–	–	26.0
